From the supplement of paper PMC10307832

What was measured:
Experiment in all cases: relative viability (nuclei count vs DMSO), 5 days (fraction); higher = more cells survive
[1] = compound: CC1=CC=C(C=C1)C(=O)CN2C3=C(CCCC3)SC2=N [Pifithrin_alpha] + CCNC(=O)c1noc(-c2cc(C(C)C)c(O)cc2O)c1-c1ccc(CN2CCOCC2)cc1 [Luminespib] (partner 0.01 µM)
Method in brief: (§1)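 For relative viability, nuclei counts in treated wells were divided by those in vehicle wells. Lung cancer cell lines had been pin-tool dosed in 1536-well plates the day after seeding and cultured for 5 days, then fixed and stained in one step (final 0.05% Triton X-100, 1% formaldehyde, 1 ug/ml Hoechst) and imaged at 4×. Doses were one drug alone or a fixed anchor-drug dose plus five library-drug doses (not always all listed) in √10 steps, and values are duplicate-plate medians.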

[2] = compound: CC1=CC=C(C=C1)C(=O)CN2C3=C(CCCC3)SC2=N [Pifithrin_alpha] + Nc1nc2[nH]cc(CCc3ccc(C(=O)N[C@@H](CCC(=O)O)C(=O)O)cc3)c2c(=O)[nH]1 [Pemetrexed] (partner 0.2 µM)
Method in brief: as §1

Axitinib + Foretinib = compound: CNC(=O)c1ccccc1Sc1ccc2c(/C=C/c3ccccn3)n[nH]c2c1 [Axitinib] + COc1cc2c(Oc3ccc(NC(=O)C4(C(=O)Nc5ccc(F)cc5)CC4)cc3F)ccnc2cc1OCCCN1CCOCC1 [Foretinib] (partner 0.25 µM)
Method in brief: as §1

Bemcentinib + OSI-027 = compound: Nc1nc(Nc2ccc3c(c2)CC[C@@H](N2CCCC2)CC3)nn1-c1cc2c(nn1)-c1ccccc1CCC2 [Bemcentinib] + COc1cccc2cc(-c3nc([C@H]4CC[C@H](C(=O)O)CC4)n4ncnc(N)c34)[nH]c12 [OSI-027] (partner 0.5 µM)
Method in brief: as §1

Row | Cell Line | relative viability ([1]; first compound 1 µM) | relative viability ([1]; first compound 3.162 µM) | relative viability ([1]; first compound 10 µM) | relative viability ([1]; first compound 31.62 µM) | relative viability ([1]; first compound 100 µM) | relative viability ([2]; first compound 1 µM) | relative viability ([2]; first compound 3.162 µM) | relative viability ([2]; first compound 10 µM) | relative viability ([2]; first compound 31.62 µM) | relative viability ([2]; first compound 100 µM) | relative viability (Axitinib + Foretinib; first compound 0.005 µM) | relative viability (Axitinib + Foretinib; first compound 0.01581 µM) | relative viability (Axitinib + Foretinib; first compound 0.05 µM) | relative viability (Axitinib + Foretinib; first compound 0.1581 µM) | relative viability (Axitinib + Foretinib; first compound 0.5 µM) | relative viability (Bemcentinib + OSI-027; first compound 0.04 µM) | relative viability (Bemcentinib + OSI-027; first compound 0.1265 µM) | relative viability (Bemcentinib + OSI-027; first compound 0.4 µM) | relative viability (Bemcentinib + OSI-027; first compound 1.265 µM) | relative viability (Bemcentinib + OSI-027; first compound 4 µM)
1 | NCI-H1944 | 0.694 | 0.633 | 0.588 | 0.42 | 0.504 | 0.562 | 0.55 | 0.59 | 0.457 | 0.512 | 0.892 | 0.881 | 0.978 | 0.882 | 1 | 0.43 | 0.483 | 0.407 | 0.413 | 0.41
2 | HCC-15 | 0.175 | 0.284 | 0.315 | 0.209 | 0.322 | 0.225 | 0.206 | 0.207 | 0.206 | 0.209 | 1.1 | 1.11 | 0.958 | 0.99 | 0.999 | 0.716 | 0.794 | 0.74 | 0.726 | 0.815
3 | NCI-H2405 | 0.757 | 0.571 | 0.536 | 0.668 | 0.515 | – | 0.86 | 0.957 | 0.802 | 0.971 | 1.03 | 1.04 | 1.13 | 1.03 | 1.15 | 0.665 | 0.64 | 0.62 | 0.707 | 0.692
4 | COR-L 105 | 0.675 | 0.763 | 0.547 | 0.62 | 0.685 | 1.13 | 1 | 0.951 | 0.926 | 1.03 | 0.973 | 1.12 | 1.16 | 1.05 | 1.49 | 0.521 | 0.642 | 0.571 | 0.713 | 0.726
5 | ABC-1 | – | 0.642 | 0.766 | 0.508 | 0.262 | – | – | – | – | – | 1.02 | 1.04 | 1.17 | 0.916 | 1.29 | 0.435 | 0.402 | 0.469 | 0.683 | 0.507
6 | HCC-366 | – | – | – | – | – | 0.158 | 0.154 | 0.139 | – | 0.133 | 0.949 | 0.958 | 0.865 | 0.966 | 0.977 | 0.803 | 1.17 | 0.921 | 0.875 | 0.898
7 | NCI-H1623 | 0.464 | 0.285 | 0.339 | 0.318 | 0.322 | – | – | – | – | – | 0.948 | 0.846 | 0.758 | 0.838 | 0.885 | 0.401 | 0.418 | 0.424 | 0.45 | 0.502
8 | NCI-H2342 | 0.653 | 0.665 | 0.699 | 0.773 | 0.71 | 0.628 | 0.741 | 0.729 | 0.855 | 0.782 | 1.29 | 1.04 | 0.982 | 1.02 | 1.07 | 0.618 | 0.655 | 0.689 | 0.56 | 0.567
9 | NCI-H2085 | – | 0.404 | 0.513 | 0.387 | 0.387 | 0.945 | 0.819 | 0.888 | 0.835 | 0.713 | 0.979 | 1.05 | 0.884 | 0.9 | 1.07 | 0.722 | 0.945 | 0.764 | 0.686 | 0.752
